{
  "source": "patent EP0465913B1",
  "about": "“Diaminotrifluoromethylpyrimidine derivatives, process for their production and phospholipase A2 inhibitor containing them” (ISHIHARA SANGYO KAISHA, LTD., priority 1990, dated 1992)",
  "key": {"[1]": {"biological_target": "T1, Porcine pancreatic phospholipase A2 (Sus scrofa, UniProt P00592)", "T1 construct": "purchased Boehringer Mannheim·Yamanouchi K.K. 161454·122416", "T1 sequence (P00592 23-146)": "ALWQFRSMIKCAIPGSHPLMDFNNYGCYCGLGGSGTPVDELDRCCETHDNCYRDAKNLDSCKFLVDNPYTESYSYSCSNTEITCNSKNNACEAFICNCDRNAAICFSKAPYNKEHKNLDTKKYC", "test": "Phospholipase A2 inhibitory activity, method A (egg yolk lecithin substrate)", "type": "biochemical", "conditions": "1,000 ppm, 37°C for 30 minutes, read-out: % inhibition of PLA2 (1,000 ppm)", "how_it_was_run": "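Egg yolk lecithin dispersed with glycerine, Triton X-100 and CaCl2 in 50 mM Tris-HCl pH7.5 was hydrolysed by enzyme (20 ng/ml solution) with compound, 37°C, 30 min. Released free fatty acid measured by ACS-ACOD method at 540 nm; apparent enzyme level read from a standard curve to give percent inhibition.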"}, "[2]": {"system": "experimental acute pancreatitis model", "test": "Effects against acute pancreatitis (Test Example 8, closed duodenal loop method, lesion scores)", "type": "in vivo, Crj-CD male rats", "conditions": "sodium salt, 6 hours after ventrotomy; for inhibition in vivo at 10 mg/kg: Rattus norvegicus, 10 mg/kg single intravenous injection", "how_it_was_run": "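Closed duodenal loop pancreatitis in male Crj-CD rats (n=3) under halothane/nitrous oxide; sodium-salt compounds given i.v. into tail vein by continuous infusion or bolus, controls untreated. At 6 h, four pancreatic lesions scored 0-3; inhibition % of total and hemorrhagic scores calculated versus control.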"}, "[3]": {"system": "ddy male mice", "test": "Acute toxicity, intravenous injection (LD50)", "type": "in vivo", "conditions": "sodium salt, mortality over one week, 10080 min", "experimental": "Administration route: Intravenous injection\nUsing ddy male mice (body weight: 25 - 30 g), each test group consisted of 5 mice. A test compound was dissolved in the form of a sodium salt in a physiological saline or in a 5% glucose aqueous solution, and intravenously injected in an amount of 0.1 ml/10 g body weight. After the injection, the mortality rate was obtained over one week, and the median lethal dose LD50 (mg/kg) was determined."}, "[4]": {"system": "increased vascular permeability induced by acetic acid", "test": "Inhibitory activity on increased vascular permeability induced by acetic acid (Rat Whittle method, method D)", "type": "in vivo, SD (Crj: CD) male rats", "conditions": "amount of leaked dye", "experimental": "Using SD (Crj: CD) male rats, each test group consisted of from 3 to 5 rats. A test compound was mixed with Tween 80 [polyoxyethylenesorbitan monooleate (manufactured by Nacalai Tesque K.K.)], and distilled water was added thereto to obtain a 2% Tween 80 suspension, or it was dissolved in the form of a salt in water to obtain an aqueous solution. A test compound was orally administered, and one hour later, 0.7% acetic acid was intraperitonially injected to each rat in an amount of 0.05 ml/10 g, and at the same time, 2% brilliant blue was intravenously injected into the tail vein in an amount of 0.05 ml/20 g. Thirty minutes after the injection of brilliant blue, the cervical vertebrae were dislocated under anesthesia by chloroform, and the abdorminal cavity was washed with 10 ml of a physiological saline. The washing solution was subjected to centrifugal separation at 3,000 rpm for 10 minutes, and the amount of the dye in the supernatant was measured at 600 nm absorbance by Microplate ELISA Reader (Model 2550EIA Reader, manufactured by Bio-Rad Laboratories). The inhibition rate of the amount of leaked dye in the group to which a test compound was administered relative to the control group was obtained from the following formula, and the results are shown in Table 9. Inhibition rate (%) = (l -(C)/(D)) x 100 [formula] • C: Amount of leaked dye in the group to which a test compound was administered. • D: Amount of leaked dye in the control group."}, "[5]": {"conditions": "20 mg/kg continuous intravenous injection"}, "[6]": {"conditions": "read-out: Inhibition rate of hemorrhagic lesions (%)"}, "[7]": {"conditions": "read-out: Inhibition rate of pancreatitis lesions (%)"}},
  "note": "Counter-ions that a name gives are not always drawn. Like-named read-outs stand apart in the source and are kept apart here.",
  "data": [
    {"smiles": "CS(=O)(=O)Nc1ncc(C(F)(F)F)cc1NC(=O)c1ccc(F)cc1", "note": "[Compound No. 10, N-(2-methylsulfonylamino-5-trifluoromethyl-3-pyridyl)-4-fluorobenzamide]", "values": [
      {"measurement": "inhibition at 1000 ppm", "setting": "[1]", "result": 60, "unit": "%"}
    ]},
    {"smiles": "CCS(=O)(=O)Nc1ncc(C(F)(F)F)cc1NC(=O)C1CCCCC1", "note": "[Compound No. 47, N-(2-ethylsulfonylamino-5-trifluoromethyl-3-pyridyl)cyclohexanecarboxamide]", "values": [
      {"measurement": "Inhibition rate of hemorrhagic lesions (%)", "setting": "[2]; [5]", "result": 68, "unit": "%"},
      {"measurement": "inhibition at 1000 ppm", "setting": "[1]", "result": 75, "unit": "%"}
    ]},
    {"smiles": "CCS(=O)(=O)Nc1ncc(C(F)(F)F)cc1NC(=O)C1CCCCC1", "note": "[Compound No. 251, sodium salt of N-(2-ethylsulfonylamino-5-trifluoromethyl-3-pyridyl)cyclohexanecarboxamide]", "values": [
      {"measurement": "inhibition in vivo at 10 mg/kg", "setting": "[2]; [6]", "result": 79, "unit": "%"},
      {"measurement": "inhibition in vivo at 10 mg/kg", "setting": "[2]; [7]", "result": 80, "unit": "%"},
      {"measurement": "LD50", "setting": "[3]", "result": 65, "unit": "mg/kg"},
      {"measurement": "Inhibition rate (%)", "setting": "[4]; dose 12.5 mg/kg orally", "result": 46, "unit": "%"}
    ]},
    {"smiles": "CS(=O)(=O)Nc1ncc(C(F)(F)F)cc1NC(=O)C(F)(F)C(F)(F)F", "note": "[compound 13]", "values": [
      {"measurement": "Inhibition rate of hemorrhagic lesions (%)", "setting": "[2]; 23 mg/kg continuous intravenous injection", "result": 100, "unit": "%"},
      {"measurement": "inhibition at 1000 ppm", "setting": "[1]", "result": 87, "unit": "%"}
    ]},
    {"smiles": "CS(=O)(=O)Nc1ncc(C(F)(F)F)cc1NC(=O)c1ccccc1", "note": "[compound 43]", "values": [
      {"measurement": "Inhibition rate of hemorrhagic lesions (%)", "setting": "[2]; [5]", "result": 81, "unit": "%"},
      {"measurement": "inhibition at 1000 ppm", "setting": "[1]", "result": 47, "unit": "%"}
    ]},
    {"smiles": "CS(=O)(=O)Nc1ncc(C(F)(F)F)cc1NC(=O)C1CCCC1", "note": "[compound 45]", "values": [
      {"measurement": "Inhibition rate of hemorrhagic lesions (%)", "setting": "[2]; 25 mg/kg continuous intravenous injection", "result": 62, "unit": "%"},
      {"measurement": "inhibition at 1000 ppm", "setting": "[1]", "result": 50, "unit": "%"}
    ]},
    {"smiles": "Cc1cccc(C(=O)Nc2cc(C(F)(F)F)cnc2NS(C)(=O)=O)c1", "note": "[compound 78]", "values": [
      {"measurement": "inhibition in vivo at 10 mg/kg", "setting": "[2]; [6]", "result": 96, "unit": "%"},
      {"measurement": "inhibition in vivo at 10 mg/kg", "setting": "[2]; [7]", "result": 91, "unit": "%"},
      {"measurement": "Inhibition rate (%)", "setting": "[4]; dose 25 mg/kg orally", "result": 40, "unit": "%"}
    ]},
    {"smiles": "CS(=O)(=O)Nc1ncc(C(F)(F)F)cc1NC(=O)c1cccc(Cl)c1", "note": "[compound 79]", "values": [
      {"measurement": "inhibition in vivo at 10 mg/kg", "setting": "[2]; [6]", "result": 23, "unit": "%"},
      {"measurement": "inhibition in vivo at 10 mg/kg", "setting": "[2]; [7]", "result": 39, "unit": "%"},
      {"measurement": "Inhibition rate (%)", "setting": "[4]; dose 50 mg/kg orally", "result": 74, "unit": "%"}
    ]},
    {"smiles": "CS(=O)(=O)Nc1ncc(C(F)(F)F)cc1NC(=O)c1cc2ccccc2s1", "note": "[compound 86]", "values": [
      {"measurement": "inhibition in vivo at 10 mg/kg", "setting": "[2]; [6]", "result": 87, "unit": "%"},
      {"measurement": "inhibition in vivo at 10 mg/kg", "setting": "[2]; [7]", "result": 85, "unit": "%"},
      {"measurement": "Inhibition rate (%)", "setting": "[4]; dose 50 mg/kg orally", "result": 37, "unit": "%"}
    ]},
    {"smiles": "CS(=O)(=O)Nc1ncc(C(F)(F)F)cc1NC(=O)c1ccc2c(c1)CCC2", "note": "[compound 87]", "values": [
      {"measurement": "inhibition in vivo at 10 mg/kg", "setting": "[2]; [6]", "result": 83, "unit": "%"},
      {"measurement": "inhibition in vivo at 10 mg/kg", "setting": "[2]; [7]", "result": 87, "unit": "%"},
      {"measurement": "Inhibition rate (%)", "setting": "[4]; dose 12.5 mg/kg orally", "result": 47, "unit": "%"}
    ]},
    {"smiles": "C/C=C/C(=O)Nc1cc(C(F)(F)F)cnc1NS(=O)(=O)CC", "note": "[compound 93, N-(2-ethylsulfonylamino-5-trifluoromethyl-3-pyridyl)crotonamide]", "values": [
      {"measurement": "inhibition in vivo at 10 mg/kg", "setting": "[2]; [6]", "result": 70, "unit": "%"},
      {"measurement": "inhibition in vivo at 10 mg/kg", "setting": "[2]; [7]", "result": 70, "unit": "%"},
      {"measurement": "Inhibition rate (%)", "setting": "[4]; dose 25 mg/kg orally", "result": 54, "unit": "%"}
    ]},
    {"smiles": "CCS(=O)(=O)Nc1ncc(C(F)(F)F)cc1NC(=O)C1CCCC1", "note": "[compound 94]", "values": [
      {"measurement": "inhibition in vivo at 10 mg/kg", "setting": "[2]; [6]", "result": 11, "unit": "%"},
      {"measurement": "inhibition in vivo at 10 mg/kg", "setting": "[2]; [7]", "result": 11, "unit": "%"},
      {"measurement": "Inhibition rate (%)", "setting": "[4]; dose 25 mg/kg orally", "result": 45, "unit": "%"}
    ]}
  ]
}
